Data as given in ChEMBL document CHEMBL2046380, “Synthesis and structure-activity relationship of disubstituted benzamides as a novel class of antimalarial agents” (Bioorg Med Chem Lett, 2012).

Tests used:
[1] = tested on: Plasmodium falciparum; assay: Antimalarial activity against […] incubated for 72 hrs by DNA staining based MARK1 growth inhibition assay; assay type: functional, organism-based
[2] = tested on: Raji; assay: Cytotoxicity against human Raji cells after 72 hrs by […] CellTiterGlo reagent assay; assay type: cell-based
[3] = tested on: BJ; assay: Cytotoxicity against human BJ cells after 72 hrs by […] CellTiterGlo reagent assay; assay type: cell-based
[4] = tested on: Plasmodium falciparum; assay: Antimalarial activity against chloroquine-sensitive Plasmodium falciparum 3D7 incubated for 72 hrs by DNA staining based MAR3D7 growth inhibition assay; assay type: functional, organism-based; conditions: 3D7, 72 h
[5] = tested on: HepG2; assay: Cytotoxicity against human HepG2 cells after 72 hrs by […] CellTiterGlo reagent assay; assay type: cell-based; conditions: HepG2, 72 h
[6] = tested on: HEK293; assay: Cytotoxicity against human HEK293 cells after 72 hrs by […] CellTiterGlo reagent assay; assay type: cell-based; conditions: HEK293, 72 h

| Structure (SMILES) | EC50 [1] [µM] | EC50 [2] [µM] | EC50 [3] [µM] | EC50 [4] [µM] | EC50 [5] [µM] | EC50 [6] [µM] |
| --- | --- | --- | --- | --- | --- | --- |
| CC(C)N(Cc1cccc(OCCCCCC(=O)O)c1)C(=O)c1ccc(-c2ccc3c(c2)OCCO3)cc1 | > 12.1 | > 21.9 | > 21.9 | > 12.1 | > 21.9 | > 21.9 |
| CC(C)N(Cc1cccc(OCCCCCC(=O)O)c1)C(=O)c1ccc(-c2ccc(Cl)c(Cl)c2)cc1 | 0.0175 | > 26 | > 26 | > 15 | > 26 | > 26 |
| CCOC(=O)CCCCCOc1ccccc1CN(C(=O)c1ccc(-c2ccc3c(c2)OCO3)cc1)C(C)C | > 15 | > 26 | > 26 | > 15 | > 26 | > 26 |
| CCOC(=O)CCCCCOc1cccc(CN(C(=O)c2ccc(-c3cccc(S(C)(=O)=O)c3)cc2)C(C)C)c1 | > 15 | > 26 | > 26 | > 15 | > 26 | > 26 |
| CCOC(OCC)C(=O)NCCc1ccc(OC)c(OC)c1 | > 7.51 | > 13 | > 13 | > 7.51 | > 13 | > 13 |
| CC(C)N(Cc1cccc(OCCCCCC(=O)O)c1)C(=O)c1ccc(-c2cccc([N+](=O)[O-])c2)cc1 | > 15 | > 26 | > 26 | < 0.0004 | > 26 | > 26 |
| CCOC(=O)CCCCCOc1cccc(CN(C(=O)c2ccc(-c3cccc(C(C)=O)c3)cc2)C(C)C)c1 | > 15 | > 26 | > 26 | > 1.5 | > 26 | > 26 |
| CC(=O)Nc1cccc(-c2ccc(C(=O)N(Cc3cccc(OCCCCCC(=O)O)c3)C(C)C)cc2)c1 | > 15 | > 26 | > 26 | > 15 | > 26 | > 26 |
| CC(C)(C)OC(=O)NCC(OC(=O)C(O)CO)c1ccc2c(c1)OCO2 (stereo not drawn) | > 7.51 | > 13 | > 13 | > 7.51 | > 13 | > 13 |
| CC(C)N(Cc1cccc(OCCCCCC(=O)O)c1)C(=O)c1ccc(-c2ccc3ccccc3c2)cc1 | > 15 | > 26 | > 26 | < 0.0004 | > 26 | > 26 |
| CCOC(=O)CCCCCOc1cccc(CN(C(=O)c2ccc(-c3cc4ccccc4n3S(=O)(=O)c3ccccc3)cc2)C(C)C)c1 | > 15 | > 26 | > 26 | > 15 | > 26 | > 26 |
| COc1cc(F)cc(-c2ccc(C(=O)N(Cc3cccc(OCCCCCC(=O)O)c3)C(C)C)cc2)c1 | > 15 | > 26 | > 26 | > 15 | > 26 | > 26 |
| CCOC(=O)CCCCCOc1cccc(CN(C(=O)c2ccc(-c3cccc(OC)c3)cc2)C(C)C)c1 | > 11.7 | > 21 | > 21.1 | > 11.7 | > 21.1 | > 21.1 |
| CCOC(=O)CCCCCOc1cccc(CN(C(=O)c2ccc(-c3cnc(OC)nc3OC)cc2)C(C)C)c1 | > 15 | > 26 | > 26 | > 15 | > 26 | > 26 |
| CCOC(=O)CCCCCOc1ccccc1C=O | > 15 | > 26 | > 26 | > 15 | > 26 | > 26 |
| CCOC(=O)CCCCCOc1cccc(CN(C(=O)c2ccc(-c3cccc(OCC(C)C)c3)cc2)C(C)C)c1 | > 15 | > 26 | > 26 | > 15 | > 26 | > 26 |
| CCOC(=O)CCCCCOc1ccc(CNC(C)C)cc1 | > 15 | > 26 | > 26 | > 15 | > 26 | > 26 |
| CCOC(=O)CC(=O)NCC(OCC)(OCC)c1ccc2c(c1)OCO2 | > 7.51 | > 13 | > 13 | > 7.51 | > 13 | > 13 |
| CC(C)COc1cccc(-c2ccc(C(=O)N(Cc3cccc(OCCCCCC(=O)O)c3)C(C)C)cc2)c1 | > 15 | > 26 | > 26 | > 15 | > 26 | > 26 |
| O=C(O)c1cc(-c2ccco2)nc2ccccc12 | > 15 | > 26 | > 26 | > 15 | > 26 | > 26 |
| C=CCCC(=O)NCC1(c2ccc3c(c2)OCO3)OCCO1 | > 7.51 | > 13 | > 13 | > 7.51 | > 13 | > 13 |
| CC(C)N(Cc1cccc(OCCCCCC(=O)O)c1)C(=O)c1ccc(-c2ccc3cc[nH]c3c2)cc1 | > 1.5 | > 26 | > 26 | > 15 | > 26 | > 26 |

| Structure (SMILES) | EC50 [1] [µM] | EC50 [2] [µM] | EC50 [3] [µM] | EC50 [4] [µM] | EC50 [5] [µM] | EC50 [6] [µM] |
| --- | --- | --- | --- | --- | --- | --- |
| CCOC(=O)CCCCCOc1cccc(CN(C(=O)c2ccc(-c3ccc(Cl)c(Cl)c3)cc2)C(C)C)c1 | > 15 | > 26 | > 26 | > 15 | > 26 | > 26 |
| CCOC(=O)CCCCCOc1cccc(CN(C(=O)c2ccc(Br)cc2)C(C)C)c1 | > 15 | > 26 | > 26 | > 15 | > 26 | > 26 |
| CCCN(Cc1ccc(OCCCCCC(=O)OCC)cc1)C(=O)c1ccc(-c2ccc3c(c2)OCO3)cc1 | > 15 | > 26 | > 26 | > 15 | > 26 | > 26 |
| CC(C)N(Cc1cccc(OCCCCCC(=O)O)c1)C(=O)c1ccc(-c2cccc(C(F)(F)F)c2)cc1 | > 15 | > 26 | > 26 | > 15 | > 26 | > 26 |
| CC(C)N(Cc1cccc(OCCCCCC(=O)O)c1)C(=O)c1ccc(-c2ccsc2)cc1 | > 15 | > 26 | > 26 | > 15 | > 26 | > 26 |
| CCOC(=O)CC(=O)NCCc1ccc(OC)c(OC)c1 | > 7.51 | > 13 | > 13 | > 7.51 | > 13 | > 13 |
| COc1cc(C)ccc1OCCOc1ccccc1F | > 15 | > 26 | > 26 | > 15 | > 26 | > 26 |
| CCCN(Cc1cccc(OCCCCCC(=O)OCC)c1)C(=O)c1ccc(-c2ccc3c(c2)OCO3)cc1 | > 15 | > 26 | > 26 | > 15 | > 26 | > 26 |
| COc1ccc(C(=O)C(Br)N=[N+]=[N-])cc1OC (stereo not drawn) | > 7.51 | > 13 | > 13 | > 7.51 | > 13 | > 13 |
| CCOC(=O)CCCCCOc1ccc(CO)cc1 | > 15 | > 27.2 | > 27.2 | > 15 | > 27.2 | > 27.2 |
| C=CCCC(=O)NC[C@H](O)c1ccc2c(c1)OCO2 | > 7.51 | > 13 | > 13 | > 7.51 | > 13 | > 13 |
| CC(C)N(Cc1cccc(OCCCCCC(=O)O)c1)C(=O)c1ccc(-c2cccc(S(C)(=O)=O)c2)cc1 | > 15 | > 26 | > 26 | > 15 | > 26 | > 26 |
| CCOC(=O)CCCCCOc1ccccc1CNC(C)C | > 15 | > 26 | > 26 | > 15 | > 26 | > 26 |
| CC(C)N(Cc1cccc(OCCCCCC(=O)O)c1)C(=O)c1ccc(-c2cccc(-c3ccccc3)c2)cc1 | > 15 | > 26 | > 26 | > 15 | > 26 | > 26 |
| CCOC(=O)CCCCCOc1cccc(CN(C(=O)c2ccc(-c3cccc(OCC)c3)cc2)C(C)C)c1 | > 12.4 | > 22.4 | > 22.4 | > 12.4 | > 22.4 | > 22.4 |
| CCOC(=O)CCCCCOc1cccc(CN(C(=O)c2ccc(-c3cccc4ccccc34)cc2)C(C)C)c1 | > 15 | > 26 | > 26 | > 15 | > 26 | > 26 |
| CCOC(=O)CCCCCOc1cccc(CN(C(=O)c2ccc(-c3ccc4ccccc4c3)cc2)C(C)C)c1 | > 15 | > 26 | > 26 | > 15 | > 26 | > 26 |
| CC(C)N(C(=O)c1ccc(-c2ccc3c(c2)OCO3)cc1)[C@H](C)c1ccccc1 | > 15 | > 26 | > 26 | > 15 | > 26 | > 26 |
| CCOC(OCC)C1=NCCc2cc(OC)c(OC)cc21 | > 7.51 | > 13 | > 13 | > 7.51 | > 13 | > 13 |
| CC(C)N(Cc1cccc(OCCCCCC(=O)O)c1)C(=O)c1ccccc1 | 0.0074 | > 26 | > 26 | > 15 | > 26 | > 26 |
| CC(C)N(Cc1cccc(OCCCCCC(=O)O)c1)C(=O)c1ccc(-c2cccc(OC(F)(F)F)c2)cc1 | > 15 | > 26 | > 26 | > 15 | > 26 | > 26 |
